{"source": "paper PMC8177795", "about": "(Cancer Science, 2021)", "experiment": "Safety and tolerability", "type": "in vivo, Japanese patients", "conditions": "for Overall safety and tolerability: adult Japanese patients with r/r B‐cell malignancies", "note": "“Also recorded” adds a separate entry of the source."}
{"smiles": "CC#CC(=O)N1CCC[C@H]1c1nc(-c2ccc(C(=O)Nc3ccccn3)cc2)c2c(N)nccn12", "note": "[acalabrutinib]", "values": [{"measurement": "Overall safety and tolerability", "setting": "100 mg BID", "value": "safe and well‐tolerated"}, {"measurement": "Overall safety and tolerability", "setting": "100 mg BID, listed as Acalabrutinib", "value": "generally safe and well‐tolerated"}, {"measurement": "Dose‐limiting toxicities (DLTs)", "setting": "100 mg BID, part 1", "value": "No DLTs were observed"}, {"measurement": "AE of clinical interest: Anemia", "setting": "Part 1 (N = 6)", "value": "2 (33.3) n (%)"}, {"measurement": "AE of clinical interest: Atrial fibrillation", "setting": "Part 1 (N = 6)", "value": "0 n (%)"}, {"measurement": "AE of clinical interest: Cardiac events", "setting": "Part 1 (N = 6)", "value": "0 n (%)"}, {"measurement": "AE of clinical interest: Hemorrhage", "setting": "Part 1 (N = 6)", "value": "0 n (%)"}, {"measurement": "AE of clinical interest: Hepatotoxicity", "setting": "Part 1 (N = 6)", "value": "0 n (%)"}, {"measurement": "AE of clinical interest: Infections", "setting": "Part 1 (N = 6)", "value": "6 (100.0) n (%)"}, {"measurement": "AE of clinical interest: Interstitial lung disease/pneumonitis", "setting": "Part 1 (N = 6)", "value": "1 (16.7) n (%)"}, {"measurement": "AE of clinical interest: Leukopenia", "setting": "Part 1 (N = 6)", "value": "1 (16.7) n (%)"}, {"measurement": "AE of clinical interest: Neutropenia", "setting": "Part 1 (N = 6)", "value": "1 (16.7) n (%)"}, {"measurement": "AE of clinical interest: Other hemorrhage", "setting": "Part 1 (N = 6)", "value": "0 n (%)"}, {"measurement": "AE of clinical interest: Other leukopenia", "setting": "Part 1 (N = 6)", "value": "0 n (%)"}, {"measurement": "AE of clinical interest: Second primary malignancies (excl. nonmelanoma skin cancer)", "setting": "Part 1 (N = 6)", "value": "1 (16.7) n (%)"}, {"measurement": "AE of clinical interest: Second primary malignancy", "setting": "Part 1 (N = 6)", "value": "1 (16.7) n (%)"}, {"measurement": "AE of clinical interest: Thrombocytopenia", "setting": "Part 1 (N = 6)", "value": "1 (16.7) n (%)"}, {"measurement": "AE of clinical interest: Tumor lysis syndrome", "setting": "Part 1 (N = 6)", "value": "0 n (%)"}, {"measurement": "Patients with any AE of clinical interest", "setting": "Part 1 (N = 6)", "value": "6 (100.0) n (%)"}, {"measurement": "Patients with any SAE", "setting": "Part 1 (N = 6)", "value": "3 (50.0) n (%)"}, {"measurement": "SAE: Abdominal pain upper", "setting": "Part 1 (N = 6)", "value": "0 n (%)"}, {"measurement": "SAE: Anemia", "setting": "Part 1 (N = 6)", "value": "1 (16.7) n (%)"}, {"measurement": "SAE: Blood and lymphatic system disorders", "setting": "Part 1 (N = 6)", "value": "1 (16.7) n (%)"}, {"measurement": "SAE: Colon cancer", "setting": "Part 1 (N = 6)", "value": "1 (16.7) n (%)"}, {"measurement": "SAE: Gastrointestinal disorders", "setting": "Part 1 (N = 6)", "value": "0 n (%)"}, {"measurement": "SAE: Infections and infestations", "setting": "Part 1 (N = 6)", "value": "1 (16.7) n (%)"}, {"measurement": "SAE: Neoplasms benign, malignant, and unspecified (incl. cysts and polyps)", "setting": "Part 1 (N = 6)", "value": "1 (16.7) n (%)"}, {"measurement": "SAE: Pneumonia", "setting": "Part 1 (N = 6)", "value": "1 (16.7) n (%)"}, {"measurement": "AE of clinical interest", "setting": "Total (N = 25)", "value": "95 Total number of AEs"}, {"measurement": "AE of clinical interest: Anemia", "setting": "Total (N = 25)", "value": "6 (24.0) n (%)"}, {"measurement": "AE of clinical interest: Atrial fibrillation", "setting": "Total (N = 25)", "value": "1 (4.0) n (%)"}, {"measurement": "AE of clinical interest: Cardiac events", "setting": "Total (N = 25)", "value": "1 (4.0) n (%)"}, {"measurement": "AE of clinical interest: Hemorrhage", "setting": "Total (N = 25)", "value": "8 (32.0) n (%)"}, {"measurement": "AE of clinical interest: Hepatotoxicity", "setting": "Total (N = 25)", "value": "3 (12.0) n (%)"}, {"measurement": "AE of clinical interest: Infections", "setting": "Total (N = 25)", "value": "16 (64.0) n (%)"}, {"measurement": "AE of clinical interest: Interstitial lung disease/pneumonitis", "setting": "Total (N = 25)", "value": "1 (4.0) n (%)"}, {"measurement": "AE of clinical interest: Leukopenia", "setting": "Total (N = 25)", "value": "7 (28.0) n (%)"}, {"measurement": "AE of clinical interest: Neutropenia", "setting": "Total (N = 25)", "value": "6 (24.0) n (%)"}, {"measurement": "AE of clinical interest: Other hemorrhage", "setting": "Total (N = 25)", "value": "8 (32.0) n (%)"}, {"measurement": "AE of clinical interest: Other leukopenia", "setting": "Total (N = 25)", "value": "3 (12.0) n (%)"}, {"measurement": "AE of clinical interest: Second primary malignancies (excl. nonmelanoma skin cancer)", "setting": "Total (N = 25)", "value": "1 (4.0) n (%)"}, {"measurement": "AE of clinical interest: Second primary malignancy", "setting": "Total (N = 25)", "value": "1 (4.0) n (%)"}, {"measurement": "AE of clinical interest: Thrombocytopenia", "setting": "Total (N = 25)", "value": "5 (20.0) n (%)"}, {"measurement": "AE of clinical interest: Tumor lysis syndrome", "setting": "Total (N = 25)", "value": "1 (4.0) n (%)"}, {"measurement": "Patients with any AE of clinical interest", "setting": "Total (N = 25)", "value": "22 (88.0) n (%)"}, {"measurement": "Patients with any SAE", "setting": "Total (N = 25)", "value": "6 (24.0) n (%)"}, {"measurement": "SAE: Abdominal pain upper", "setting": "Total (N = 25)", "value": "1 (4.0) n (%)"}, {"measurement": "SAE: Anemia", "setting": "Total (N = 25)", "value": "1 (4.0) n (%)"}, {"measurement": "SAE: Blood and lymphatic system disorders", "setting": "Total (N = 25)", "value": "1 (4.0) n (%)"}, {"measurement": "SAE: Colon cancer", "setting": "Total (N = 25)", "value": "1 (4.0) n (%)"}, {"measurement": "SAE: Gastrointestinal disorders", "setting": "Total (N = 25)", "value": "1 (4.0) n (%)"}, {"measurement": "SAE: Infections and infestations", "setting": "Total (N = 25)", "value": "3 (12.0 n (%)"}, {"measurement": "SAE: Neoplasms benign, malignant, and unspecified (incl. cysts and polyps)", "setting": "Total (N = 25)", "value": "1 (4.0) n (%)"}, {"measurement": "SAE: Pneumonia", "setting": "Total (N = 25)", "value": "3 (12.0) n (%)"}, {"measurement": "AEs of clinical interest, patients", "setting": "all 25 treated patients", "value": 88, "unit": "%"}, {"measurement": "AEs resulting in treatment discontinuation or death", "setting": "all 25 treated patients", "value": "No AEs resulted in treatment discontinuation or death; also recorded: No AEs with the outcome of death or AEs/SAEs leading to treatment discontinuation were reported"}, {"measurement": "Grade 4 AEs, patients", "setting": "all 25 treated patients", "value": 20, "unit": "%"}, {"measurement": "Headache (any AE), patients", "setting": "all 25 treated patients", "value": 32, "unit": "%"}, {"measurement": "Rash (any AE), patients", "setting": "all 25 treated patients", "value": 28, "unit": "%"}, {"measurement": "SAEs related to treatment, patients", "setting": "all 25 treated patients", "value": 16, "unit": "%"}, {"measurement": "Serious adverse events (SAEs), patients", "setting": "all 25 treated patients", "value": 24, "unit": "%"}, {"measurement": "Treatment‐related adverse events, patients", "setting": "all 25 treated patients", "value": 88, "unit": "%"}, {"measurement": "Treatment‐related headache, patients", "setting": "all 25 treated patients", "value": 28, "unit": "%"}, {"measurement": "Treatment‐related purpura, patients", "setting": "all 25 treated patients", "value": 24, "unit": "%"}, {"measurement": "AE of clinical interest: Anemia", "setting": "r/r CLL/SLL cohort (N = 9)", "value": "2 (22.2) n (%)"}, {"measurement": "AE of clinical interest: Atrial fibrillation", "setting": "r/r CLL/SLL cohort (N = 9)", "value": "0 n (%)"}, {"measurement": "AE of clinical interest: Cardiac events", "setting": "r/r CLL/SLL cohort (N = 9)", "value": "0 n (%)"}, {"measurement": "AE of clinical interest: Hemorrhage", "setting": "r/r CLL/SLL cohort (N = 9)", "value": "4 (44.4) n (%)"}, {"measurement": "AE of clinical interest: Hepatotoxicity", "setting": "r/r CLL/SLL cohort (N = 9)", "value": "1 (11.1) n (%)"}, {"measurement": "AE of clinical interest: Infections", "setting": "r/r CLL/SLL cohort (N = 9)", "value": "6 (66.7) n (%)"}, {"measurement": "AE of clinical interest: Interstitial lung disease/pneumonitis", "setting": "r/r CLL/SLL cohort (N = 9)", "value": "0 n (%)"}, {"measurement": "AE of clinical interest: Leukopenia", "setting": "r/r CLL/SLL cohort (N = 9)", "value": "3 (33.3) n (%)"}, {"measurement": "AE of clinical interest: Neutropenia", "setting": "r/r CLL/SLL cohort (N = 9)", "value": "3 (33.3) n (%)"}, {"measurement": "AE of clinical interest: Other hemorrhage", "setting": "r/r CLL/SLL cohort (N = 9)", "value": "4 (44.4) n (%)"}]}
